According to publication PMC2690590, “Functional recombinant MHC class II molecules and high-throughput peptide-binding assays” (Immunome Research, 2009):
Like-named read-outs stand apart in the source and are kept apart here. Where no end group is shown, it is not given here.

How the values were obtained:
DR2 (DR2a) = biological target: T1, DR2 (DR2a) (Homo sapiens, UniProt P01903+Q30154); assay: ELISA-based peptide-MHC class II binding assay, DR2
T1 construct: DR2a: DRA*0101_1–181/DRB5*0101_1–190; made in house

[1] = biological target: T2, DR2a (DRA*0101/DRB5*0101) (Homo sapiens, UniProt P01903+Q30154); assay: Competitive LOCI peptide-MHC-II binding assay, DR2a; details: pH 6-7.5, 48 h 18°C, read-out: DR2a Komp IC50
T2 construct: DRA*01011-181LZFos; DRB5*01011-190LZJunBSP; made in house

DR4 = biological target: T3, DR4 (Homo sapiens, UniProt P01903+P01911); assay: ELISA-based peptide-MHC class II binding assay, DR4
T3 construct: made in house

[2] = biological target: T4, DRB3*0301 (DRA*0101/DRB3*0301) (Homo sapiens, UniProt P01903+P79483, A169T/A212P/D57E/G115V/L67V/Q178H/R103Q/R40L/Y55F); assay: Direct LOCI peptide-MHC-II binding assay, DRB3*0301; details: read-out: DRB3*0301 affinity
T4 construct: DRA*01011-181LZFos; DRB3*03011-190LZJunBSP; made in house

DR3 (DRA*0101/DRB1*0301) = biological target: T5, DR3 (DRA*0101/DRB1*0301) (Homo sapiens, UniProt P01903+P01911, A100K/A102G/A103R/A169T/F55Y/I96L/K41T/L162R/M171V/P40S/Q125H/Q178H/Q39Y/R42S/S66N/T106N/T262R/W38E/Y61H); assay: Direct LOCI peptide-MHC-II binding assay, DR3; details: read-out: DR3 affinity
T5 construct: DRA*01011-181LZFos; DRB1*03011-190LZJunBSP; made in house

DR4 (DRA*0101/DRB1*0401) = biological target: T6, DR4 (DRA*0101/DRB1*0401) (Homo sapiens, UniProt P01903+P01911, A100K/A169T/F76Y/I96L/K127E/L162R/M171V/N62H/P40V/Q125Y/R42H/S133A/S149N/S66Y/V115G/V209L/W38E); assay: Direct LOCI peptide-MHC-II binding assay, DR4; details: read-out: DR4 affinity
T6 construct: DRA*01011-181LZFos; DRB1*04011-190LZJunBSP; made in house

DR1 (DRA*0101/DRB1*0101) = DR1 (DRA*0101/DRB1*0101) (Homo sapiens, UniProt P01903+P01911, A100R/D57E/F55L/F60I/F76Y/I96L/L162R/M171V/P40L/Q125E/R42F/V115G/Y59C); assay: Competitive peptide-HLA-DR1 binding assay, radioactive spun column
[3] = biological target: T7, DRB1*0813 (DRA*0101/DRB1*0813) (Homo sapiens, UniProt P01903+P01911, A100R/A103L/A169T/F76Y/H45Y/I96L/K41T/L162R/M171V/P40S/Q125H/Q178H/Q39Y/Q99D/R218S/R42G/S66Y/V115G/W38E); assay: Direct LOCI peptide-MHC-II binding assay, DRB1*0813; details: read-out: DRB1*0813 affinity
T7 construct: DRA*01011-181LZFos; DRB1*08131-190LZJunBSP; made in house

[4] = biological target: DP401 (DPA1*0103/DPB1*0401) (Homo sapiens, UniProt P04440+P20036); assay: Direct LOCI peptide-MHC-II binding assay, DP401; details: read-out: DP401 affinity
[5] = biological target: T2, DR2a (DRA*0101/DRB5*0101); assay: Direct LOCI peptide-MHC-II binding assay, DR2a; details: read-out: DR2a pH6 affinity
I-E^d = biological target: T8, I-E^d (Mus musculus, UniProt P01904+P01915); assay: Direct LOCI peptide-MHC-II binding assay, I-E^d; details: 48 h 18°C; read-out: I-E^D affinity
T8 construct: I-E^dA1-191LZFos; I-E^dB1-198LZJunBSP; made in house

DR1 = DR1 (Homo sapiens, UniProt P01903+P01911, A100R/D57E/F55L/F60I/F76Y/I96L/L162R/M171V/P40L/Q125E/R42F/V115G/Y59C); assay: biochemical; assay type: binding

CSCC[C@H](NC(=O)[C@@H]1CCCN1C(=O)[C@H](CC(C)C)NC(=O)[C@H](C)NC(=O)[C@H](CCC(N)=O)NC(=O)[C@H](CCSC)NC(=O)[C@H](CC(C)C)NC(=O)[C@H](CC(C)C)NC(=O)[C@@H]1CCCN1C(=O)[C@@H](NC(=O)[C@H](C)NC(=O)[C@H](CCSC)NC(=O)[C@H](CCCNC(=N)N)NC(=O)[C@H](CCSC)NC(=O)[C@H](CCCCN)NC(=O)[C@H](CO)NC(=O)[C@@H](NC(=O)[C@@H]1CCCN1C(=O)[C@H](CCCCN)NC(=O)[C@@H]1CCCN1C(=O)[C@@H]1CCCN1C(=O)[C@H](CCCCN)NC(=O)[C@@H]1CCCN1C(=O)[C@H](CC(C)C)NC(=O)[C@@H](N)Cc1ccc(O)cc1)C(C)C)[C@@H](C)O)C(=O)O [CLIP]
EC50 (DR2 (DR2a); ELISA, L243 detection, α/β 31 and 1 nM, refolding buffer pH 8, 24 h 18°C, peptide concentration in nM per legend, read-out: EC50 DR2): 0.7 nM | IC50 ([1]; competitive LOCI, 4 nM biotin-PEG-HA306–318 agonist, β chain without biotin, α/β 13/5 nM, L243, average of 2–4 measurements): 1 nM | EC50 (DR4; ELISA, L243 detection, α/β 31 and 1 nM, refolding buffer pH 8, 24 h 18°C, peptide concentration in nM per legend, read-out: EC50 DR4): 9.7 nM | Kd [2]: 1 nM | Kd (DR3 (DRA*0101/DRB1*0301)): 1 nM | Kd (DR4 (DRA*0101/DRB1*0401)): 2 nM | IC50 (DR1 (DRA*0101/DRB1*0101); competition with 3 nM 125I labelled (Y)HA306–318, 80 nM DR1 α and β chain, 24 h, spun column, some ligand depletion expected, read-out: IC50): 40 nM | Kd [3]: 2 nM | Kd [4]: 4 nM | Kd [5]: 1 nM

YKYVKQNTLKLAT [HA306-318]
EC50 (DR2 (DR2a)): 1.2 nM | IC50 [1]: 2 nM | EC50 (DR4): 43.1 nM | Kd ([2]; pH 7, 48 h 18°C): 4 nM | Kd (DR3 (DRA*0101/DRB1*0301); pH 6-7, 48 h 18°C): 13 nM | Kd (DR4 (DRA*0101/DRB1*0401); pH 6-7.5, 48 h 18°C): 8 nM | IC50 (DR1 (DRA*0101/DRB1*0101)): 34 nM | Kd ([3]; pH 6-7.5, 48 h 18°C): 11 nM | Kd ([4]; pH 7, 48 h 18°C): > 5000 nM | Kd (I-E^d): 25 nM | EC50 (DR1): 2.2 nM | Kd ([5]; pH 6, 48 h 18°C): 10 nM
